In patent publication US11040959B2, “Diprovocims: a new and potent class of TLR agonists” (The Scripps Research Institute, priority 2016, dated 2021):
Like-named read-outs stand apart in the source and are kept apart here. Blank lines part the entries; values can stand above or below the compound they belong to.

Tests used:
[1] = tested on: differentiated human THP-1 cells; assay: stimulated release of TNF-α from differentiated human THP-1 cells (ELISA, dose-response); assay type: cell-based
Procedure, shortened: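 Human THP-1 cells were PMA-differentiated toward macrophages, and stimulated TNF-α release was measured by ELISA. EC50 values were taken from dose-response curves.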

mouse macrophages = assay: stimulated release of TNF-α from mouse macrophages; assay type: cell-based; details: for EC50: Macrophage; for activity in stimulating TNF-α release from mouse macrophages (in words): tested up to 5 μM where stated
Procedure, shortened: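 EC50 derived from dose-response curves for stimulated TNF-α release from mouse macrophages.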

[2] = Homo sapiens, THP-1, Table 7, TNF-α release from human THP-1 cells, read-out: EC50 (nM) (THP-1)
[3] = Table 7, TNF-α release from mouse macrophages, read-out: EC50 (nM) (mouse)
[4] = table of 125-132 (one lipid side chain, R and S), mouse macrophages, read-out: EC50 (nM) (mouse)
[5] = Homo sapiens, THP-1, table of 125-132 (one lipid side chain, R and S), human THP-1 cells, read-out: EC50 (nM) (THP-1)
[6] = Homo sapiens, THP-1, table of 133-139 (two lipid side chains), human THP-1 cells, read-out: EC50 (nM) (THP-1)
[7] = table of 133-139 (two lipid side chains), mouse macrophages, read-out: EC50 (nM) (mouse)

EC50 [1, 2]: > 5000 nM | EC50 (mouse macrophages; [3]): > 5000 nM
Compound: O=C(NCCc1ccc(F)cc1)[C@@H]1CN(C(=O)[C@@H]2CCC[C@@H](C(=O)N3C[C@@H](C(=O)NCCc4ccc(F)cc4)[C@H](C(=O)NCCc4ccc(F)cc4)C3)C2)C[C@H]1C(=O)NCCc1ccc(F)cc1 [Compound 106, (3S,3′S,4S,4′S)-1,1′-((1R,3R)-Cyclohexane-1,3-dicarbonyl)bis(N^3,N^4-bis(4-fluorophenethyl)-pyrrolidine-3,4-dicarboxamide)]

EC50 [1, 2]: > 5000 nM | EC50 (mouse macrophages; [3]): > 5000 nM
Compound: O=C(NCCc1ccc(F)cc1)[C@@H]1CN(C(=O)[C@H]2CC[C@H](C(=O)N3C[C@@H](C(=O)NCCc4ccc(F)cc4)[C@H](C(=O)NCCc4ccc(F)cc4)C3)CC2)C[C@H]1C(=O)NCCc1ccc(F)cc1 [Compound 107, (3S,3′S,4S,4′S)-1,1′-((1S,4S)-Cyclohexane-1,4-dicarbonyl)bis(N^3,N^4-bis(4-fluorophenethyl)-pyrrolidine-3,4-dicarboxamide)]

EC50 [1, 2]: > 5000 nM | EC50 (mouse macrophages; [3]): > 5000 nM
Compound: O=C(NCCc1ccc(F)cc1)[C@@H]1CN(C(=O)[C@H]2CC[C@@H](C(=O)N3C[C@@H](C(=O)NCCc4ccc(F)cc4)[C@H](C(=O)NCCc4ccc(F)cc4)C3)CC2)C[C@H]1C(=O)NCCc1ccc(F)cc1 [Compound 108, (3S,3′S,4S,4′S)-1,1′-((1R,4R)-Cyclohexane-1,4-dicarbonyl)bis(N^3,N^4-bis(4-fluorophenethyl)-pyrrolidine-3,4-dicarboxamide)]

EC50 [1, 2]: > 5000 nM | EC50 (mouse macrophages; [3]): > 5000 nM
Compound: O=C(NCCc1ccc(F)cc1)[C@@H]1CN(C(=O)c2ccc3cc(C(=O)N4C[C@@H](C(=O)NCCc5ccc(F)cc5)[C@H](C(=O)NCCc5ccc(F)cc5)C4)ccc3c2)C[C@H]1C(=O)NCCc1ccc(F)cc1 [Compound 109, (3S,3′S,4S,4′S)-1,1′-(Naphthalene-2,6-dicarbonyl)-bis(N^3,N^4-bis(4-fluorophenethyl)-pyrrolidine-3,4-dicarboxamide)]

EC50 [1, 2]: 130 nM | EC50 (mouse macrophages; [3]): > 5000 nM
Compound: O=C(NCCc1ccc(F)cc1)[C@@H]1CN(C(=O)c2ccc(C(=O)N3C[C@@H](C(=O)NCCc4ccc(F)cc4)[C@H](C(=O)NCCc4ccc(F)cc4)C3)c(O)c2)C[C@H]1C(=O)NCCc1ccc(F)cc1 [Compound 110, (3S,3′S,4S,4′S)-1,1′-(2-Hydroxy-terephthaloyl)-bis(N^3,N^4-bis(4-fluorophenethyl)-pyrrolidine-3,4-dicarboxamide)]

EC50 ([1]; Homo sapiens, THP-1, running text, read-out: EC50, stimulated release of TNF-α from differentiated human THP-1 cells): 0.13 nM | EC50 (mouse macrophages; Mus musculus, read-out: EC50, stimulated release of TNF-α from mouse macrophages): 1.2 nM
Compound: O=C(NC1C[C@@H]1c1ccc(F)cc1)[C@@H]1CN(C(=O)c2ccc(C(=O)N3C[C@@H](C(=O)NC4C[C@@H]4c4ccc(F)cc4)[C@H](C(=O)NC4C[C@@H]4c4ccc(F)cc4)C3)cc2)C[C@H]1C(=O)NC1C[C@@H]1c1ccc(F)cc1 (stereo partly drawn) [Compound 118, (3S,3′S,4S,4′S)-1,1′-Terephthaloyl-bis(N^3,N^4-bis-((1S,2R)-2-(4-fluorophenyl)cyclopropyl)pyrrolidine-3,4-dicarboxamide)]

Second part, the compound before the results:

Compound: O=C(NCCc1ccc(F)cc1)[C@@H]1CN(C(=O)c2ccc(C(=O)N3C[C@@H](C(=O)N[C@H]4C[C@@H]4c4ccccc4)[C@H](C(=O)N[C@H]4C[C@@H]4c4ccccc4)C3)cc2)C[C@H]1C(=O)NCCc1ccc(F)cc1 [Compound 114, (3S,4S)-1-(4-((3S,4S)-3,4-Bis(((1S,2R)-2-phenylcyclopropyl)carbamoyl)-pyrrolidine-1-carbonyl)benzoyl)—N^3,N^4-bis(4-fluorophenethyl)-pyrrolidine-3,4-dicarboxamide]
activity in stimulating TNF-α release from human THP-1 cells (in words) ([1]; tested up to 5 μM where stated): active | activity in stimulating TNF-α release from mouse macrophages (in words) (mouse macrophages): active

Compound: O=C(NCCc1ccc(F)cc1)[C@H]1CN(C(=O)c2ccc(C(=O)N3C[C@@H](C(=O)N[C@H]4C[C@@H]4c4ccccc4)[C@H](C(=O)N[C@H]4C[C@@H]4c4ccccc4)C3)cc2)C[C@@H]1C(=O)NCCc1ccc(F)cc1 [Compound 115]
fold less active than 114 in human THP-1 cells ([1]; human THP-1 cells): 5 fold | activity in stimulating TNF-α release from mouse macrophages (in words) (mouse macrophages): inactive

Compound: CCCCCCCCCCCCCCCCNC(=O)[C@@H]1CCN(C(=O)c2ccc(C(=O)N3C[C@@H](C(=O)N[C@H]4C[C@@H]4c4ccccc4)[C@H](C(=O)N[C@H]4C[C@@H]4c4ccccc4)C3)cc2)C1 [Compound 125, (3S,4S)-1-(4-((R)-3-(Hexadecylcarbamoyl)-pyrrolidine-1-carbonyl)benzoyl)-N^3,N^4-bis((1S,2R)-2-phenylcyclopropyl)pyrrolidine-3,4-dicarboxamide]
EC50 ([1]; table of 125-132 (one lipid side chain, R and S), human THP-1 cells, read-out: EC50 (nM) (THP-1)): 15 nM | EC50 (mouse macrophages; [4]): > 5000 nM

Compound: CCCCCCCCCCCCCCNC(=O)[C@@H]1CCN(C(=O)c2ccc(C(=O)N3C[C@@H](C(=O)N[C@H]4C[C@@H]4c4ccccc4)[C@H](C(=O)N[C@H]4C[C@@H]4c4ccccc4)C3)cc2)C1 [Compound 126, (3S,4S)—N^3,N^4-Bis((1S,2R)-2-phenylcyclopropyl)-1-(4-((R)-3-(tetradecylcarbamoyl)pyrrolidine-1-carbonyl)benzoyl)pyrrolidine-3,4-dicarboxamide]
EC50 [1, 5]: 2 nM | EC50 (mouse macrophages; [4]): 260 nM

Compound: CCCCCCCCCCCCNC(=O)[C@@H]1CCN(C(=O)c2ccc(C(=O)N3C[C@@H](C(=O)N[C@H]4C[C@@H]4c4ccccc4)[C@H](C(=O)N[C@H]4C[C@@H]4c4ccccc4)C3)cc2)C1 [Compound 127, (3S,4S)-1-(4-((R)-3-(Dodecylcarbamoyl)-pyrrolidine-1-carbonyl)benzoyl)—N^3,N^4-bis((1S,2R)-2-phenylcyclopropyl)pyrrolidine-3,4-dicarboxamide]
EC50 [1, 5]: 9 nM | EC50 (mouse macrophages; [4]): 700 nM

Compound: CCCCCCCCCCNC(=O)[C@@H]1CCN(C(=O)c2ccc(C(=O)N3C[C@@H](C(=O)N[C@H]4C[C@@H]4c4ccccc4)[C@H](C(=O)N[C@H]4C[C@@H]4c4ccccc4)C3)cc2)C1 [Compound 128, (3S,4S)-1-(4-((R)-3-(Decylcarbamoyl)pyrrolidine-1-carbonyl)benzoyl)—N^3,N^4-bis((1S,2R)-2-phenyl-cyclopropyl)pyrrolidine-3,4-dicarboxamide]
EC50 [1, 5]: 210 nM | EC50 (mouse macrophages; [4]): 2400 nM

Compound: CCCCCCCCCCCCCCNC(=O)[C@H]1CCN(C(=O)c2ccc(C(=O)N3C[C@@H](C(=O)N[C@H]4C[C@@H]4c4ccccc4)[C@H](C(=O)N[C@H]4C[C@@H]4c4ccccc4)C3)cc2)C1 [Compound 130, (3S,4S)—N^3,N^4-Bis((1S,2R)-2-phenylcyclopropyl)-1-(4-((S)-3-(tetradecylcarbamoyl)pyrrolidine-1-carbonyl)benzoyl)pyrrolidine-3,4-dicarboxamide]
EC50 [1, 5]: 4 nM | EC50 (mouse macrophages; [4]): 240 nM

Compound: CCCCCCCCCCCCNC(=O)[C@H]1CCN(C(=O)c2ccc(C(=O)N3C[C@@H](C(=O)N[C@H]4C[C@@H]4c4ccccc4)[C@H](C(=O)N[C@H]4C[C@@H]4c4ccccc4)C3)cc2)C1 [Compound 131, (3S,4S)-1-(4-((S)-3-(Dodecylcarbamoyl)-pyrrolidine-1-carbonyl)benzoyl)—N^3,N^4-bis((1S,2R)-2-phenylcyclopropyl)pyrrolidine-3,4-dicarboxamide]
EC50 [1, 5]: 4 nM | EC50 (mouse macrophages; [4]): 1000 nM

Compound: CCCCCCCCCCNC(=O)[C@H]1CCN(C(=O)c2ccc(C(=O)N3C[C@@H](C(=O)N[C@H]4C[C@@H]4c4ccccc4)[C@H](C(=O)N[C@H]4C[C@@H]4c4ccccc4)C3)cc2)C1 [Compound 132, (3S,4S)-1-(4-((S)-3-(Decylcarbamoyl)pyrrolidine-1-carbonyl)benzoyl)—N^3,N^4-bis((1S,2R)-2-phenyl-cyclopropyl)pyrrolidine-3,4-dicarboxamide]
EC50 [1, 5]: 33 nM | EC50 (mouse macrophages; [4]): 1800 nM

Compound: CCCCCCCCCCCCCCCCNC(=O)[C@@H]1CN(C(=O)c2ccc(C(=O)N3C[C@@H](C(=O)N[C@H]4C[C@@H]4c4ccccc4)[C@H](C(=O)N[C@H]4C[C@@H]4c4ccccc4)C3)cc2)C[C@H]1C(=O)NCCCCCCCCCCCCCCCC [Compound 133, (3S,4S)-1-(4-((3S,4S)-3,4-Bis(((1S,2R)-2-phenyl-cyclopropyl)carbamoyl)pyrrolidine-1-carbonyl)-benzoyl)-N^3,N^4-dihexadecylpyrrolidine-3,4-dicarboxamide]
EC50 [1, 6]: 2.5 nM | EC50 (mouse macrophages; [7]): 1000 nM

Compound: CCCCCCCCCCCCCCNC(=O)[C@@H]1CN(C(=O)c2ccc(C(=O)N3C[C@@H](C(=O)N[C@H]4C[C@@H]4c4ccccc4)[C@H](C(=O)N[C@H]4C[C@@H]4c4ccccc4)C3)cc2)C[C@H]1C(=O)NCCCCCCCCCCCCCC [Compound 134, (3S,4S)-1-(4-((3S,4S)-3,4-Bis(((1S,2R)-2-phenylcyclopropyl)carbamoyl)pyrrolidine-1-carbonyl)benzoyl)-N^3,N^4-ditetradecylpyrrolidine-3,4-dicarboxamide]
EC50 [1, 6]: 1.3 nM | EC50 (mouse macrophages; [7]): 620 nM

Compound: CCCCCCCCCCCCNC(=O)[C@@H]1CN(C(=O)c2ccc(C(=O)N3C[C@@H](C(=O)N[C@H]4C[C@@H]4c4ccccc4)[C@H](C(=O)N[C@H]4C[C@@H]4c4ccccc4)C3)cc2)C[C@H]1C(=O)NCCCCCCCCCCCC [Compound 135, (3S,4S)-1-(4-((3S,4S)-3,4-Bis(((1S,2R)-2-phenylcyclopropyl)carbamoyl)pyrrolidine-1-carbonyl)benzoyl)-N^3,N^4-didodecylpyrrolidine-3,4-dicarboxamide]
EC50 [1, 6]: 1 nM | EC50 (mouse macrophages; [7]): 1000 nM

Compound: CCCCCCCCCCNC(=O)[C@@H]1CN(C(=O)c2ccc(C(=O)N3C[C@@H](C(=O)N[C@H]4C[C@@H]4c4ccccc4)[C@H](C(=O)N[C@H]4C[C@@H]4c4ccccc4)C3)cc2)C[C@H]1C(=O)NCCCCCCCCCC [Compound 136, (3S,4S)-1-(4-((3S,4S)-3,4-Bis(((1S,2R)-2-phenylcyclopropyl)carbamoyl)pyrrolidine-1-carbonyl)benzoyl)-N^3,N^4-didecylpyrrolidine-3,4-dicarboxamide]
EC50 [1, 6]: 0.28 nM | EC50 (mouse macrophages; [7]): 60 nM
